Measurements published in patent publication US20230331737A1, “MTORC1 MODULATORS AND USES THEREOF” (Aeovian Pharmaceuticals, Inc., priority 2020, published 2023).

Key:
[1] = biological target: FKBP12 ternary complex with FRB (Homo sapiens, UniProt P42345+P62942); experiment: SPR assay to characterize ternary complex formation with FKBP12 (FRB injected over compound-saturated FKBP12); format: binding; settings: FRB dilutions with 100 nM test compound over immobilized FKBP12
mTORC1 = biological target: T1, mTORC1 (Homo sapiens, UniProt P42345+P62942); experiment: mTORC1 inhibition in PC-3 cells, AlphaLISA of p70S6K pT389 levels; format: cell-based; settings: mTORC1 as measured by inhibition of p70S6K pT389 levels, read-out: mTROC1 IC50
T1 construct: endogenous in cells; host or cells: PC-3 cells
Protocol: mTORC1 inhibition was determined via analysis of phosphorylation levels of Phospho-p70 S6 kinase (p70S6K pT389) and Phospho-S6 Ribosomal Protein (pRPS6 pS240/pS244) with the corresponding AlphaLISA kits (PerkinElmer Alpha SF Ultra™ Multiplex phospho (Thr389)/total p70 S6K Assay Kit (Eu/Tb) and AlphaLISA SF Ultra™ p-Ribosomal Protein S6 (Ser240/244) Assay Kit).
%−activity=100*((Sample−Low control)/(High control−Low control))

FKBP12 = FKBP12 (Homo sapiens, UniProt P62942); experiment: SPR assay to determine binding affinity to FKBP12 (direct binding); settings: immobilized biotinylated avi-FKBP12, single-cycle kinetics
mTORC2 = mTORC2 (Homo sapiens, UniProt P42345+P62942); experiment: mTORC2 inhibition in PC3 cells, AlphaLISA of pAKT pS473 levels
Chain of mTORC2 (P62942 2-108 limits assumed, other chains not shown): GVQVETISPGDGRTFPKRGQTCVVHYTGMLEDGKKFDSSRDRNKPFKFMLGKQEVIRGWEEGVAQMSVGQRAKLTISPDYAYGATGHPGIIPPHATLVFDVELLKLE

Chain of FKBP12 (P62942 whole entry, species assumed): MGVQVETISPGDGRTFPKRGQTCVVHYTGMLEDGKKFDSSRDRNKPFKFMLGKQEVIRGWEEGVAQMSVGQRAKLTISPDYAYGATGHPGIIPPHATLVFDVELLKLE

Structure (SMILES)	Kd [1]	IC50 (mTORC1)	Kd (FKBP12)	IC50 (mTORC2)
CO[C@@H]1C[C@H](C[C@@H](C)[C@@H]2CC(=O)[C@H](C)/C=C(\C)[C@@H](O)[C@@H](OC)C(=O)[C@H](C)C[C@H](C)/C=C/C=C/C=C(\C)[C@@H](OC3COC3)C[C@@H]3CC[C@@H](C)[C@@](O)(O3)C(=O)C(=O)N3CCCC[C@H]3C(=O)O2)CC[C@H]1O [Compound 523, (1R,9S,12S,15R,16E,18R,19R,21R,23S,24E,26E,28E,30S,32S,35R)-1,18-dihydroxy-12-[(2R)-1-[(1S,3R,4R)-4-hydroxy-3-methoxycyclohexyl]propan-2-yl]-19-methoxy-15,17,21,23,29,35-hexamethyl-30-(oxetan-3-yloxy)-11,36-dioxa-4-azatricyclo[30.3.1.04,9]hexatriaconta-16,24,26,28-tetraene-2,3,10,14,20-pentone]	> 1100 nM	< 0.8 nM	< 0.3 nM	–
CO[C@@H]1C[C@H](C[C@@H](C)[C@@H]2CC(=O)[C@H](C)/C=C(\C)[C@@H](O)[C@@H](OC)C(=O)[C@H](C)C[C@H](C)/C=C/C=C/C=C(\C)[C@@H](OCC3COC3)C[C@@H]3CC[C@@H](C)[C@@](O)(O3)C(=O)C(=O)N3CCCC[C@H]3C(=O)O2)CC[C@H]1O [Compound 521, (1R,9S,12S,15R,16E,18R,19R,21R,23S,24E,26E,28E,30S,32S,35R)-1,18-dihydroxy-12-[(2R)-1-[(1S,3R,4R)-4-hydroxy-3-methoxycyclohexyl]propan-2-yl]-19-methoxy-15,17,21,23,29,35-hexamethyl-30-[(oxetan-3-yl)methoxy]-11,36-dioxa-4-azatricyclo[30.3.1.04,9]hexatriaconta-16,24,26,28-tetraene-2,3,10,14,20-pentone]	500 to 1100 nM	< 0.8 nM	< 0.3 nM	–
CO[C@H]1C[C@@H]2CC[C@@H](C)[C@@](O)(O2)C(=O)C(=O)N2CCCC[C@H]2C(=O)O[C@H]([C@H](C)C[C@@H]2CC[C@@H](OCCO)[C@H](OC)C2)CC(=O)[C@H](C)/C=C(\C)[C@@H](O)[C@@H](OC)C(=O)[C@H](C)C[C@H](C)/C=C/C=C/C=C/1C [everolimus]	–	–	–	< 10 nM
COCCO[C@@H]1C[C@@H]2CC[C@@H](C)[C@@](O)(O2)C(=O)C(=O)N2CCCC[C@H]2C(=O)O[C@H]([C@H](C)C[C@@H]2CC[C@@H](OCCCO)[C@H](OC)C2)CC(=O)[C@H](C)/C=C(\C)[C@@H](O)[C@@H](OC)C(=O)[C@H](C)C[C@H](C)/C=C/C=C/C=C/1C [Compound 28, (1R,9S,12S,15R,16E,18R,19R,21R,23S,24E,26E,28E,30R,32S,35R)-1,18-dihydroxy-12-[(1R)-2-[(1S,3R,4R)-4-(3-hydroxypropoxy)-3-methoxy-cyclohexyl]-1-methyl-ethyl]-19-methoxy-30-(2-methoxyethoxy)-15,17,21,23,29,35-hexamethyl-11,36-dioxa-4-azatricyclo[30.3.1.04,9]hexatriaconta-16,24,26,28-tetraene-2,3,10,14,20-pentone]	500 to 1100 nM	> 1.5 nM	> 1 nM	–
CO[C@@H]1C[C@H](C[C@@H](C)[C@@H]2CC(=O)[C@H](C)/C=C(\C)[C@@H](O)[C@@H](OC)C(=O)[C@H](C)C[C@H](C)/C=C/C=C/C=C(\C)[C@@H](OCC3COC3)C[C@@H]3CC[C@@H](C)[C@@](O)(O3)C(=O)C(=O)N3CCCC[C@H]3C(=O)O2)CC[C@H]1OCCO [Compound 474, (1R,9S,12S,15R,16E,18R,19R,21R,23S,24E,26E,28E,30S,32S,35R)-1,18-dihydroxy-12-[(1R)-2-[(1S,3R,4R)-4-(2-hydroxyethoxy)-3-methoxy-cyclohexyl]-1-methyl-ethyl]-19-methoxy-15,17,21,23,29,35-hexamethyl-30-(oxetan-3-ylmethoxy)-11,36-dioxa-4-azatricyclo[30.3.1.04,9]hexatriaconta-16,24,26,28-tetraene-2,3,10,14,20-pentone]	500 to 1100 nM	< 0.8 nM	0.3 to 1 nM	–
CO[C@@H]1C[C@H](C[C@@H](C)[C@@H]2CC(=O)[C@H](C)/C=C(\C)[C@@H](O)[C@@H](OC)C(=O)[C@H](C)C[C@H](C)/C=C/C=C/C=C(\C)[C@H](OC3CC3)C[C@@H]3CC[C@@H](C)[C@@](O)(O3)C(=O)C(=O)N3CCCC[C@H]3C(=O)O2)CC[C@H]1OCCO [Compound 128, (1R,9S,12S,15R,16E,18R,19R,21R,23S,24E,26E,28E,30R,32S,35R)-30-(cyclopropoxy)-1,18-dihydroxy-12-[(1R)-2-[(1S,3R,4R)-4-(2-hydroxyethoxy)-3-methoxy-cyclohexyl]-1-methyl-ethyl]-19-methoxy-15,17,21,23,29,35-hexamethyl-11,36-dioxa-4-azatricyclo[30.3.1.04,9]hexatriaconta-16,24,26,28-tetraene-2,3,10,14,20-pentone]	< 500 nM	0.8 to 1.5 nM	> 1 nM	–
